This note sets out measurements from patent EP4782450A1, “NOVEL SKELETAL DERIVATIVE EFFECTIVE FOR HER2 MUTATION, AND PHARMACEUTICAL COMPOSITION COMPRISING SAME” (Hanmi Pharm. Co., Ltd., priority 2023, dated 2025).

For one assay, the system named is Ba/F3 HER2 A775insYVMA. Description: Growth inhibition of Ba/F3 cells engineered to overexpress HER2 A775_G776insYVMA (CellTiter-Glo luminescence). It is filed as cell-based. The following applies: concentrations 1000 to 0.32 nM, read-out: Ba/F3 HER2^YVMA GI50 class. In short, it runs like this: (§1)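 Ba/F3 cells overexpressing HER2 A775_G776insYVMA (1000–0.32 nM) or wild-type EGFR (10000–8 nM) treated 72 h at 37°C in RPMI/10% FBS. Viability by CellTiter-Glo luminescence; GI50 by nonlinear regression with untreated growth set at 100%.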
(In ATP-based viability assays light output follows the ATP content of the culture.)

The test system of assay [1] is wild-type EGFR overexpressing Ba/F3 cells. Nature of the assay: Growth inhibition of Ba/F3 cells engineered to overexpress wild-type EGFR (CellTiter-Glo luminescence). It is filed as cell-based. The following applies: concentrations 10000 to 8 nM, read-out: Ba/F3 EGFR^WT GI50 class. The method in brief:
as §1

Read-outs that look alike come from different tables or passages of the source. Where only a bound is given, the exact number is not on record here.

On to `C=CC(=O)N1CCC[C@H]1C#Cc1ccc2ncnc(Nc3ccc(Oc4ccn5ncnc5c4)c(C)c3)c2c1` [Example 75, (S)-1-(2-((4-((4-([1,2,4]triazolo[1,5-a]pyridin-7-yloxy)-3-methylphenyl)amino)quinazolin-6-yl)ethynyl)pyrrolidin-1-yl)prop-2-en-1-one], for which the GI50 in the assay with Ba/F3 HER2 A775insYVMA (Mus musculus, BaF3, 72 hours) is under 0.1 µM; in assay [1] (Mus musculus, BaF3, 72 hours), 0.1 to 1 µM.
For `C=CC(=O)NC/C=C/c1ccc2ncnc(Nc3ccc(Oc4ccc5c(c4)ncn5C)c(C)c3)c2n1` [Example 33, (E)-N-(3-(4-((3-methyl-4-((1-methyl-1H-benzo[d]imidazol-5-yl)oxy)phenyl)amino)pyrido[3,2-d]pyridin-6-yl)allyl)acrylamide] the same measures were under 0.1 µM and 1 to 5 µM.
For `C=CC(=O)N(C)[C@H](C)/C=C/c1ccc2ncnc(Nc3ccc(Oc4ccc5c(c4)ncn5C)c(C)c3)c2n1` [Example 52, (R,E)-N-methyl-N-(4-(4-((3-methyl-4-((1-methyl-1H-benzo[d]imidazol-5-yl)oxy)phenyl)amino)pyrido[3,2-d]pyrimidin-6-yl)but-3-en-2-yl)acrylamide] the same measures were under 0.1 µM and 1 to 5 µM.
Regarding `C=CC(=O)N(C)CC#Cc1ccc2ncnc(Nc3ccc(Oc4ccn5ncnc5c4)c(C)c3)c2n1` [Example 68, N-(3-(4-((4-([1,2,4]triazolo[1,5-a]pyridin-7-yloxy)-3-methylphenyl)amino)pyrido[3,2-d]pyrimidin-6-yl)prop-2-yn-1-yl)-N-methylacrylamide], the GI50 was under 0.1 µM in the assay on Ba/F3 HER2 A775insYVMA (Mus musculus, BaF3, 72 hours) and 0.1 to 1 µM in assay [1] (Mus musculus, BaF3, 72 hours).
For `C=CC(=O)N1CCC[C@@H]1C#Cc1ncc2ncnc(Nc3ccc(Oc4ccn5ncnc5c4)c(C)c3)c2n1` [Example 83, (R)-1-(2-((8-((4-([1,2,4]triazolo[1,5-a]pyridin-7-yloxy)-3-methylphenyl)amino)pyrimido[5,4-d]pyrimidin-2-yl)ethynyl)pyrrolidin-1-yl)prop-2-en-1-one] the same measures were under 0.1 µM and under 0.1 µM.
As to “N-(2-((8-((4-([1,2,4]triazolo[1,5-a]pyridin-7-yloxy)-3-methylphenyl)amino)pyrimido[5,4-d]pyrimidin-2-yl)oxy)ethyl)-N-methylacrylamide [Example 4]”, the GI50 (in the assay on Ba/F3 HER2 A775insYVMA (72 hours); in assay [1] (72 hours)) was 1 to 5 µM throughout.
As to `C=CC(=O)N(C)C1(/C=C/c2ccc3ncnc(Nc4ccc(Oc5ccc6c(c5)ncn6C)c(C)c4)c3n2)CC1` [Example 30, (E)-N-methyl-N-(1-(2-(4-((3-methyl-4-((1-methyl-1H-benzo[d]imidazol-5-yl)oxy)phenyl)amino)pyrido[3,2-d]pyrimidin-6-yl)vinyl)cyclopropyl)acrylamide], the GI50 was in the range of 0.1 to 1 µM in the assay with Ba/F3 HER2 A775insYVMA (Mus musculus, BaF3, 72 hours) and 0.1 to 1 µM in assay [1] (Mus musculus, BaF3, 72 hours).
As to `C=CC(=O)N(C)CCN(C)c1ncc2ncnc(Nc3ccc(Oc4ccc5c(c4)ncn5C)c(C)c3)c2n1` [Example 19, N-methyl-N-(2-(methyl(8-((3-methyl-4-((1-methyl-1H-benzo[d]imidazol-5-yl)oxy)phenyl)amino)pyrimido[5,4-d]pyrimidin-2-yl)amino)ethyl)acrylamide], the GI50 was 0.1 to 1 µM in the assay with Ba/F3 HER2 A775insYVMA (Mus musculus, BaF3, 72 hours) and over 5 µM in assay [1] (Mus musculus, BaF3, 72 hours).
Consider `C=CC(=O)N(C)C/C=C/c1ccc2ncnc(Nc3ccc(Oc4ccc5c(c4)ncn5C)c(Cl)c3)c2n1` [Example 25, (E)-N-(3-(4-((3-chloro-4-((1-methyl-1H-benzo[d]imidazol-5-yl)oxy)phenyl)amino)pyrido[3,2-d]pyrimidin-6-yl)allyl)-N-methylacrylamide], for which the GI50 in the assay with Ba/F3 HER2 A775insYVMA (Mus musculus, BaF3, 72 hours) is under 0.1 µM; in assay [1] (Mus musculus, BaF3, 72 hours), 1 to 5 µM.
Taken in the same sequence, the figures for `C=CC(=O)N(C)C/C=C/c1ncc2ncnc(Nc3ccc(Oc4ccc5c(c4)ncn5C)c(C)c3)c2n1` [Example 24, (E)-N-methyl-N-(3-(8-((3-methyl-4-((1-methyl-1H-benzo[d]imidazol-5-yl)oxy)phenyl)amino)pyrimido[5,4-d]pyrimidin-2-yl)allyl)acrylamide] were under 0.1 µM and 1 to 5 µM.
Taken in the same sequence, the figures for `C=CC(=O)N(C)CCOc1ncc2ncnc(Nc3ccc(Oc4ccc5c(c4)ncn5C)c(C)c3)c2n1` [Example 8, N-methyl-N-(2-((8-((3-methyl-4-((1-methyl-1H-benzo[d]imidazol-5-yl)oxy)phenyl)amino)pyrimido[5,4-d]pyrimidin-2-yl)oxy)ethyl)acrylamide] were 0.1 to 1 µM and 1 to 5 µM.
For the compound `C=CC(=O)N(C)CCNc1ccc2ncnc(Nc3ccc(Oc4ccc5c(c4)ncn5C)c(C)c3)c2n1` [Example 15, N-methyl-N-(2-((4-((3-methyl-4-((1-methyl-1H-benzo[d]imidazol-5-yl)oxy)phenyl)amino)pyrido[3,2-d]pyrimidin-6-yl)amino)ethyl)acrylamide], the GI50 in the assay on Ba/F3 HER2 A775insYVMA (Mus musculus, BaF3, 72 hours) was under 0.1 µM; in assay [1] (Mus musculus, BaF3, 72 hours), 1 to 5 µM.
Taken in the same sequence, the figures for `C=CC(=O)N1CC(/C=C/c2ccc3ncnc(Nc4cc(C)c(Oc5ccc6c(c5)ncn6C)cc4F)c3n2)C1` [Example 45] were under 0.1 µM and over 5 µM.
For `C=CC(=O)N(C)CC#Cc1cnc2ncnc(Nc3ccc(Oc4ccn5ncnc5c4)c(C)c3)c2c1` [Example 66, N-(3-(4-((4-([1,2,4]triazolo[1,5-a]pyridin-7-yloxy)-3-methylphenyl)amino)pyrido[2,3-d]pyrimidin-6-yl)prop-2-yn-1-yl)-N-methylacrylamide] the same measures were 1 to 5 µM and 1 to 5 µM.
For `C/C=C/C(=O)N(C)C/C=C/c1ccc2ncnc(Nc3ccc(Oc4ccc5c(c4)ncn5C)c(C)c3)c2n1` [Example 31, (E)-N-methyl-N-((E)-3-(4-((3-methyl-4-((1-methyl-1H-benzo[d]imidazol-5-yl)oxy)phenyl)amino)pyrido[3,2-d]pyrimidin-6-yl)allyl)but-2-enamide], the GI50 in the assay on Ba/F3 HER2 A775insYVMA (Mus musculus, BaF3, 72 hours) was 0.1 to 1 µM; in assay [1] (Mus musculus, BaF3, 72 hours), 1 to 5 µM.
For `C=CC(=O)N1CC[C@@H]1C#Cc1ccc2ncnc(Nc3ccc(Oc4ccn5ncnc5c4)c(C)c3)c2c1` [Example 78, (R)-1-(2-((4-((4-([1,2,4]triazolo[1,5-a]pyridin-7-yloxy)-3-methylphenyl)amino)quinazolin-6-yl)ethynyl)azetidin-1-yl)prop-2-en-1-one] the same measures were under 0.1 µM and 0.1 to 1 µM.
Taken in the same sequence, the figures for `C=CC(=O)N1CCCC[C@H]1C#Cc1ccc2ncnc(Nc3ccc(Oc4ccn5ncnc5c4)c(C)c3)c2c1` [Example 77, (S)-1-(2-((4-((4-([1,2,4]triazolo[1,5-a]pyridin-7-yloxy)-3-methylphenyl)amino)quinazolin-6-yl)ethynyl)piperidin-1-yl)prop-2-en-1-one] were under 0.1 µM and under 0.1 µM.
Taken in the same sequence, the figures for `C=CC(=O)N(C)CC#Cc1ncc2ncnc(Nc3ccc(Oc4ccn5ncnc5c4)c(C)c3)c2n1` [Example 69, N-(3-(8-((4-([1,2,4]triazolo[1,5-a]pyridin-7-yloxy)-3-methylphenyl)amino)pyrimido[5,4-d]pyrimidin-2-yl)prop-2-yn-1-yl)-N-methylacrylamide] were 0.1 to 1 µM and 0.1 to 1 µM.
Regarding `C=CC(=O)N(C)CC#Cc1ccc2ncnc(Nc3ccc(Oc4ccc5c(c4)ncn5C)c(C)c3)c2n1` [Example 71, N-methyl-N-(3-(4-((3-methyl-4-((1-methyl-1H-benzo[d]imidazol-5-yl)oxy)phenyl)amino)pyrido[3,2-d]pyrimidin-6-yl)prop-2-yn-1-yl)acrylamide], the GI50 in the assay on Ba/F3 HER2 A775insYVMA (Mus musculus, BaF3, 72 hours) fell in the range of 0.1 to 1 µM; in assay [1] (Mus musculus, BaF3, 72 hours), 1 to 5 µM.
For `C=CC(=O)Nc1cccc(/C=C/c2ccc3ncnc(Nc4ccc(Oc5ccc6c(c5)ncn6C)c(C)c4)c3n2)c1` [Example 64, (E)-N-(3-(2-(4-((3-methyl-4-((1-methyl-1H-benzo[d]imidazol-5-yl)oxy)phenyl)amino)pyrido[3,2-d]pyrimidin-6-yl)vinyl)phenyl)acrylamide] the same measures were 0.1 to 1 µM and over 5 µM.
For `Cc1c(Oc2ccc3c(c2)ncn3C)ccc(Nc2ncnc3ccc(/C=C/CNC(=O)/C=C/CN(C)C)nc23)c1F` [Example 41, (E)-4-(dimethylamino)-N-((E)-3-(4-((2-fluoro-3-methyl-4-((1-methyl-1H-benzo[d]imidazol-5-yl)oxy)phenyl)amino)pyrido[3,2-d]pyrimidin-6-yl)allyl)but-2-enamide] the same measures were under 0.1 µM and 1 to 5 µM.
As for `C=CC(=O)NC/C=C/c1ccc2ncnc(Nc3ccc(Oc4ccn5nccc5c4)c(C)c3)c2n1` [Example 37, (E)-N-(3-(4-((3-methyl-4-(pyrazolo[1,5-a]pyridin-5-yloxy)phenyl)amino)pyrido[3,2-d]pyrimidin-6-yl)allyl)acrylamide], the GI50 is 0.1 to 1 µM in the assay with Ba/F3 HER2 A775insYVMA (Mus musculus, BaF3, 72 hours) and under 0.1 µM in assay [1] (Mus musculus, BaF3, 72 hours).
For `C=CC(=O)N(C)[C@@H](C)/C=C/c1ccc2ncnc(Nc3ccc(Oc4ccc5c(c4)ncn5C)c(C)c3)c2n1` [Example 51, (S,E)-N-methyl-N-(4-(4-((3-methyl-4-((1-methyl-1H-benzo[d]imidazol-5-yl)oxy)phenyl)amino)pyrido[3,2-d]pyrimidin-6-yl)but-3-en-2-yl)acrylamide] the same measures were under 0.1 µM and 1 to 5 µM.
Turning to `C=CC(=O)NC/C=C/c1ccc2ncnc(Nc3ccc(Oc4ccc5c(c4)ncn5C)c(C)c3F)c2n1` [Example 35, (E)-N-(3-(4-((2-fluoro-3-methyl-4-((1-methyl-1H-benzo[d]imidazol-5-yl)oxy)phenyl)amino)pyrido[3,2-d]pyrimidin-6-yl)allyl)acrylamide], the GI50 in the assay with Ba/F3 HER2 A775insYVMA (Mus musculus, BaF3, 72 hours) is under 0.1 µM; in assay [1] (Mus musculus, BaF3, 72 hours), over 5 µM.
Regarding “N-(2-((4-((4-([1,2,4]triazolo[1,5-a]pyridin-7-yloxy)-3-methylphenyl)amino)pyrido[3,2-d]pyrimidin-6-yl)amino)ethyl)-N-methylacrylamide [Example 11]”, the results for the GI50 (with Ba/F3 HER2 A775insYVMA (72 hours); in assay [1] (72 hours)) were 0.1 to 1 µM and 1 to 5 µM, respectively.
